# How the values were obtained:
# ERK2 = ERK2 (Homo sapiens (Human), UniProt P28482); test: Active ERK1 and ERK2 Kinase Assay (Mobility Shift Assay); format: biochemical; conditions: activated ERK2, Mobility Shift Assay
# Description: Activated ERK1 and ERK2 activity was determined in a Mobility Shift Assay (MSA) format as follows: Compound and kinase solution were prepared with assay buffer (20 mM HEPES, 0.01% Triton X-100, 2 mM DTT, pH7.5) and mixed and incubated in for 30 mins at rt. ERK1 & ERK2 were then activated by the addition of F1-Substrate, ATP and metal solution and incubated for 1 h at rt. After 1 h, the reaction was terminated by the addition of […] of Termination Buffer (QuickScout Screening Assist MSA; Carna Biosciences) to the well. The reaction mixture was applied to LabChip™ system (PerkinElmer), and the product and substrate peptide peaks were separated, analyzed and quantitated. The kinase reaction is evaluated by the product ratio calculated from peak heights of product (P) and substrate(S) peptides (P/(P+S)).
# A375 (melanoma) cells = test: Proliferation Assay (CellTiter-Glo); format: cell-based; conditions: 3 days incubation, CellTiter-Glo luminescence
# Description: A375 (melanoma), Colo-205 (colon cancer), Miapaca (pancreatic), HPAFII (pancreatic), sNF02.0 (neurofibromatosis type 1), sNF96.2 (neurofibromatosis type 1) and 8505 (Thyroid) cells were grown and maintained in RPMI-1640 medium containing 100 U/mL penicillin-streptomycin and 10% fetal bovine serum. Cells were in growth medium in 96-well opaque-walled clear bottom plates and incubated in the CO2 incubator overnight before treatment. Cells were treated with compounds diluted in DMSO and a 10 point 3-fold serial dilutions were done. Plates were placed in 37° C., 5% CO2 to incubate for 3 days. Before they were developed by adding 100 μL of CellTiter-Glo reagent (Promega) to the assay plate, plates were shaken briefly for 2 mins and allowed to incubate at room temperature for 10 mins. The bottom of the plates was pasted with white back seal and luminescence was recorded with Flexstation3 with setting of luminescence, integration time 500 ms.
# Compounds of Formula (I), (II) and (III) are active in this assay as noted in Table 2.
# Chain of ERK2 (P28482 whole entry): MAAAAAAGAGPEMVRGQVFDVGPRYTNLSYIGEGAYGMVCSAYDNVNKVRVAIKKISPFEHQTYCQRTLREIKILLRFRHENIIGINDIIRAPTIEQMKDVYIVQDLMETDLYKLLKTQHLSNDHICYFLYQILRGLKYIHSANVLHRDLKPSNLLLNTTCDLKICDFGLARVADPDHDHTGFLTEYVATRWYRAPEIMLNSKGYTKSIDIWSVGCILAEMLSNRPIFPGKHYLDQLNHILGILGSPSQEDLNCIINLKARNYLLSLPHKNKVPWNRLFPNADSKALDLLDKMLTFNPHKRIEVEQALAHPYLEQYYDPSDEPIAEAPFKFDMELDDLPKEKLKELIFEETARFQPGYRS
SMILES,IC50 (ERK2),"IC50 (A375 (melanoma) cells; Homo sapiens, A-375, 72 h)",IC50 (A375 (melanoma) cells)
Cn1nc(-c2ccc(C3=CCN(C(=O)CN4CC[C@]5(CCN(c6ccc7[nH]nc(C8=CCOCC8)c7c6)C5=O)C4)CC3)cc2)oc1=O [Example 32],≤ 50 nM,≤ 500 nM,
CNC(=O)c1cc(-c2n[nH]c3ccc(N4CC[C@]5(CCN(CC(=O)N6CC=C(c7ccc(-c8ncn(C)n8)cc7)CC6)C5)C4=O)cc23)ccn1 [Example 5],≤ 50 nM,≤ 500 nM,
CC1CC(c2n[nH]c3ccc(N4CCC5(CCN(CC(=O)N6CC=C(c7ccc(-c8nn(C)c(=O)o8)cc7)CC6)C5)C4=O)nc23)CC(C)O1 (stereo not drawn) [Example 52],≤ 50 nM,,≤ 500 nM
CC(C)n1cc(-c2n[nH]c3ccc(N4CC[C@]5(CCN(CC(=O)N6CC=C(c7ccc(-c8nn(C)c(=O)o8)cc7)CC6)C5)C4=O)cc23)cn1 [Example 31],≤ 50 nM,≤ 500 nM,
"CC(C)Oc1ccc(-c2n[nH]c3ccc(N4CC[C@]5(CCN(CC(=O)N6CC=C(c7ccc(-c8ncn(C)n8)cc7)CC6)C5)C4=O)c(F)c23)cn1 [Example 1, (S)-2-(4-Fluoro-3-(6-isopropoxypyridin-3-yl)-1H-indazol-5-yl)-7-(2-(4-(4-(1-methyl-1H-1,2,4-triazol-3-yl)phenyl)-5,6-dihydropyridin-1(2H)-yl)-2-oxoethyl)-2,7-diazaspiro[4.4]nonan-1-one]",≥ 250 nM,≥ 1000 nM,
"Cn1cnc(-c2ccc(C3=CCN(C(=O)CN4CC[C@]5(CCN(c6ccc7[nH]nc(N8CCC9(CC8)COC9)c7n6)C5=O)C4)CC3)cc2)n1 [Example 42, (S)-2-(3-(2-oxa-7-azaspiro[3.5]nonan-7-yl)-1H-pyrazolo[4,3-b]pyridin-5-yl)-7-(2-(4-(4-(1-methyl-1H-1,2,4-triazol-3-yl)phenyl)-3,6-dihydropyridin-1(2H)-yl)-2-oxoethyl)-2,7-diazaspiro[4.4]nonan-1-one]",≥ 250 nM,≥ 1000 nM,
Cn1nc(-c2ccc(C3=CCN(C(=O)CN4CC[C@]5(CCN(c6ccc7[nH]nc(-c8ccc(C#N)c(C(F)(F)F)c8)c7c6)C5=O)C4)CC3)cc2)oc1=O [Example 15],≤ 50 nM,,500 to 1000 nM
"Cn1cnc(-c2ccc(C3=CCN(C(=O)CN4CC[C@]5(CCN(c6ccc7[nH]nc(C8CCOCC8)c7n6)C5=O)C4)CC3)cc2)n1 [Example 22, (S)-7-(2-(4-(4-(1-Methyl-1H-1,2,4-triazol-3-yl)phenyl)-5,6-dihydropyridin-1(2H)-yl)-2-oxoethyl)-2-(3-(tetrahydro-2H-pyran-4-yl)-1H-pyrazolo[4,3-b]pyridin-5-yl)-2,7-diazaspiro[4.4]nonan-1-one]",≤ 50 nM,≤ 500 nM,
Cc1ccc(-c2n[nH]c3ccc(N4CC[C@]5(CCN(CC(=O)N6CC=C(c7ncc(-c8ncn(C)n8)s7)CC6)C5)C4=O)nc23)cn1 [Example 43],≤ 50 nM,,≤ 500 nM
CC(C)n1cc(-c2n[nH]c3ccc(N4CC[C@]5(CCN(CC(=O)N6CCN(c7ccc(-c8ncn(C)n8)cc7)CC6)C5)C4=O)nc23)cn1 [Example 41],≤ 50 nM,,≤ 500 nM
"Cn1cnc(-c2ccc(C3=CCN(C(=O)CN4CC[C@]5(CCN(c6ccc7[nH]nc(N8CCCC8)c7c6)C5=O)C4)CC3)cc2)n1 [Example 11, (S)-7-(2-(4-(4-(1-Methyl-1H-1,2,4-triazol-3-yl)phenyl)-5,6-dihydropyridin-1(2H)-yl)-2-oxoethyl)-2-(3-(pyrrolidin-1-yl)-1H-indazol-5-yl)-2,7-diazaspiro[4.4]nonan-1-one]",≤ 50 nM,≥ 1000 nM,
Cn1cnc(-c2ccc(C3=CCN(C(=O)CN4CC[C@]5(CCN(c6ccc7[nH]nc(-c8ccc(F)cn8)c7n6)C5=O)C4)CC3)cc2)n1 [Example 50],≤ 50 nM,,500 to 1000 nM
Cn1cnc(-c2ccc(N3CCN(C(=O)CN4CC[C@]5(CCN(c6ccc7[nH]nc(-c8ccc(F)cc8)c7n6)C5=O)C4)CC3)nc2)n1 [Example 45],≤ 50 nM,,≤ 500 nM
Cn1cnc(-c2ccc(C3=CCN(C(=O)CN4CCC5(CCN(c6ccc7[nH]nc(N8CCOCC8)c7n6)C5=O)C4)CC3)cc2)n1 (stereo not drawn) [Example 49],≤ 50 nM,,≤ 500 nM
Cn1cnc(-c2ccc(N3CCN(C(=O)CN4CC[C@]5(CCN(c6ccc7[nH]nc(-c8ccc(F)cn8)c7c6)C5=O)C4)CC3)nc2)n1 [Example 57],≤ 50 nM,,≤ 500 nM
Cn1cnc(-c2ccc(N3CCN(C(=O)CN4CC[C@]5(CCN(c6ccc7[nH]nc(-c8ccc(F)cn8)c7c6)C5=O)C4)CC3)cc2)n1 [Example 56],≤ 50 nM,,≤ 500 nM
"Cn1cnc(-c2ccc(C3=CCN(C(=O)CN4CC[C@]5(CCN(c6ccc7[nH]nc(C89CC(C#N)(C8)C9)c7c6)C5=O)C4)CC3)cc2)n1 [Example 73, (S)-3-(5-(7-(2-(4-(4-(1-Methyl-1H-1,2,4-triazol-3-yl)phenyl)-5,6-dihydropyridin-1(2H)-yl)-2-oxoethyl)-1-oxo-2,7-diazaspiro[4.4]nonan-2-yl)-1H-indazol-3-yl)bicyclo[1.1.1]pentane-1-carbonitrile]",≤ 50 nM,500 to 1000 nM,
Cn1ccc(-c2n[nH]c3ccc(N4CC[C@]5(CCN(CC(=O)N6CC=C(c7ccc(-c8ncn(C)n8)cc7)CC6)C5)C4=O)nc23)n1 [Example 39],50 to 250 nM,≥ 1000 nM,
Cn1cnc(-c2cnc(C3=CCN(C(=O)CN4CC[C@]5(CCN(c6ccc7[nH]nc(-c8ccc(F)cn8)c7c6)C5=O)C4)CC3)s2)n1 [Example 54],≤ 50 nM,,≤ 500 nM
Cc1nc2cc(-c3n[nH]c4ccc(N5CC[C@]6(CCN(CC(=O)N7CC=C(c8ccc(-c9ncn(C)n9)cc8)CC7)C6)C5=O)nc34)ccc2o1 [Example 24],≤ 50 nM,,≤ 500 nM

# Second part, the molecule after the results:
IC50 (ERK2),"IC50 (A375 (melanoma) cells; Homo sapiens, A-375, 72 h)",IC50 (A375 (melanoma) cells),SMILES
≤ 50 nM,≤ 500 nM,,Cn1cnc(-c2ccc(C3=CCN(C(=O)CN4CC[C@]5(CCN(c6ccc7[nH]nc(-c8cnc(C#N)c(Cl)c8)c7c6)C5=O)C4)CC3)cc2)n1 [Example 9]
≤ 50 nM,≥ 1000 nM,,"Cn1cnc(-c2ccc(C3=CCN(C(=O)CN4CC[C@]5(CCN(c6ccc7[nH]nc(C8CCS(=O)(=O)CC8)c7c6)C5=O)C4)CC3)cc2)n1 [Example 7, (S)-7-(2-(4-(4-(1-Methyl-1H-1,2,4-triazol-3-yl)phenyl)-5,6-dihydropyridin-1(2H)-yl)-2-oxoethyl)-2-(3-(tetrahydro-2H-thiopyran 1,1-dioxide-4-yl)-1H-indazol-5-yl)-2,7-diazaspiro[4.4]nonan-1-one]"
≤ 50 nM,500 to 1000 nM,,Cn1cnc(-c2ccc(C3=CCN(C(=O)CN4CC[C@]5(CCN(c6ccc7[nH]nc(-c8cnc(C#N)c(C(F)(F)F)c8)c7c6)C5=O)C4)CC3)cc2)n1 [Example 10]
≤ 50 nM,,≤ 500 nM,CC(C)Oc1ccc(-c2n[nH]c3ccc(N4CC[C@]5(CCN(CC(=O)N6CCN(c7ccc(-c8ncn(C)n8)cc7)CC6)C5)C4=O)nc23)cn1 [Example 82]
≤ 50 nM,,500 to 1000 nM,CC(C)Oc1ccc(-c2n[nH]c3ccc(N4CC[C@]5(CCN(CC(=O)N6CCC(c7ccc(-c8ncn(C)n8)cc7)CC6)C5)C4=O)nc23)cn1 [Example 71]
≤ 50 nM,,≤ 500 nM,Cn1nc(-c2ccc(C3=CCN(C(=O)CN4CCC5(CCN(c6ccc7[nH]nc(C8CCOCC8)c7n6)C5=O)C4)CC3)cc2)oc1=O (stereo not drawn) [Example 23]
≤ 50 nM,,≤ 500 nM,CNC(=O)c1cc(-c2n[nH]c3ccc(N4CC[C@]5(CCN(CC(=O)N6CC=C(c7ccc(-c8nn(C)c(=O)o8)cc7)CC6)C5)C4=O)cc23)ccc1F [Example 16]
≤ 50 nM,≤ 500 nM,,Cc1cc(-c2n[nH]c3ccc(N4CC[C@]5(CCN(CC(=O)N6CC=C(c7ccc(-c8ncn(C)n8)cc7)CC6)C5)C4=O)nc23)ccn1 [Example 38]
≤ 50 nM,≤ 500 nM,,Cn1cc(-c2n[nH]c3ccc(N4CC[C@]5(CCN(CC(=O)N6CC=C(c7ccc(-c8ncn(C)n8)cc7)CC6)C5)C4=O)nc23)cn1 [Example 37]
≤ 50 nM,500 to 1000 nM,,"Cn1cnc(-c2ccc(C3=CCN(C(=O)CN4CC[C@]5(CCN(c6ccc7[nH]nc(N8CCC(F)(F)CC8)c7c6)C5=O)C4)CC3)cc2)n1 [Example 3, (S)-2-(3-(4,4-difluoropiperidin-1-yl)-1H-indazol-5-yl)-7-(2-(4-(4-(1-methyl-1H-1,2,4-triazol-3-yl)phenyl)-5,6-dihydropyridin-1 (2H)-yl)-2-oxoethyl)-2,7-diazaspiro[4.4]nonan-1-one]"
≤ 50 nM,,≤ 500 nM,COc1ccc(-c2n[nH]c3ccc(N4CC[C@]5(CCN(CC(=O)N6CC=C(c7ccc(-c8ncn(C)n8)cc7)CC6)C5)C4=O)nc23)cc1OC [Example 92]
≤ 50 nM,≤ 500 nM,,Cn1cnc(-c2ccc(C3=CCN(C(=O)CN4CC[C@]5(CCN(c6ccc7[nH]nc(-c8ccc(C#N)cn8)c7c6)C5=O)C4)CC3)cc2)n1 [Example 29]
≤ 50 nM,,500 to 1000 nM,COc1cnc(-c2n[nH]c3ccc(N4CC[C@]5(CCN(CC(=O)N6CCC(c7ccc(-c8ncn(C)n8)cc7)CC6)C5)C4=O)cc23)c(F)c1 [Example 74]
